Three compounds from patent US7217800B2, “Peptide leukotriene receptor” (Astellas Pharma Inc., priority 1999, dated 2007) can be followed below.

In assay [1] the target is T1, LTC4 receptor (Homo sapiens, UniProt Q9NS75).
T1 construct: expressed in transfected cells; whole cells or membrane fraction
T1 sequence (Q9NS75 1-346): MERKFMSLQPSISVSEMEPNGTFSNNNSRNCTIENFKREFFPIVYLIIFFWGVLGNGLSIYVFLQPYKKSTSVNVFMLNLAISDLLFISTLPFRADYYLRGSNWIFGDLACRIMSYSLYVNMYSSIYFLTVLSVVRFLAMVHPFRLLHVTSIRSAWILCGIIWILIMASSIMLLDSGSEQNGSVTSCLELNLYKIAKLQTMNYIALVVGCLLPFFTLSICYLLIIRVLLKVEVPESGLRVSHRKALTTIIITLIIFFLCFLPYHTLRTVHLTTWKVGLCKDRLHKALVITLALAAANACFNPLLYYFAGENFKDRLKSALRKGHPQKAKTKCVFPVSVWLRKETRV
Nature of the assay: Inhibition of [3H]-LTC4 binding, membrane fraction of CHO cells stably expressing LTC4 receptor. The note with it: 0.5×10^−9 M [3H]-LTC4; 15 μg CHO membrane fraction; 1 hour, room temperature. As for the experimental part:
Micro-scintillator was added to the glass filter and the radioactivity was measured by a liquid scintillation counter. […] Compound A was produced as follows.

The target in assay [2] is T1, LTC4 receptor. Nature of the assay: Cell migration of CHO cells expressing LTC4 receptors elicited by LTC4. The format is cell-based. As to conditions: compound in upper layer, 3 nM LTC4 in lower layer.
Protocol: After culturing for 4 hours in a CO2 incubator at 37° C., the frame filter was fixed in methanol and stained with Diff-Quik staining kit (Kokusai-Shiyaku). The upper surface (the side onto which the cells were inoculated) of the filter was wiped, and after air drying, absorbance at 595 nm was measured with the plate reader (Molecular Devices).
The target in assay [3] is T1, LTC4 receptor. Nature of the assay: Inhibition of increase of intracellular Ca++ concentration elicited by LTC4 or LTD4, CHO cells stably expressing LTC4 receptors. The format is cell-based. As for the experimental part:
After culturing for 24 hours, medium was discarded and 100 μl/well of Hanks BSS containing 4 μM Fluo-3, AM (Molecular Probe), 0.004% pluronic acid, 1% FBS, 20 mM HEPES, and 2.5 mM probenecid was added, and incubated at 37° C. for 1 hour.
The changes of intracellular Ca^++ concentration were measured using FLIPR with the same condition as in Example 6.

In assay [4] the test system is human coronary arterial smooth muscle cells. Nature of the assay: Increase of intracellular Ca++ concentration by LTC4 in coronary arterial smooth muscle cells. The format is cell-based. As for the experimental part: The medium was discarded, and by adding 100 μl/well of Hanks BSS containing 4 μM Fluo-3, AM (Molecular Probe), 0.004% pluronic acid, 1% FBS, 20 mM HEPES, and 2.5 mM probenecid, the cells were incubated for 1 hour at 37° C. […] It is well known that the increase of intracellular Ca^++ concentration in blood vessel smooth muscle cells causes vasoconstriction (Bolton, T. B., et al. Physiol. Rev. (1979) 59, 606–718).

The target of assay [5] is T2, rat LTC4 receptor (Rattus norvegicus, UniProt Q924T9).
T2 construct: expressed in transfected cells
T2 sequence (Q924T9 1-309): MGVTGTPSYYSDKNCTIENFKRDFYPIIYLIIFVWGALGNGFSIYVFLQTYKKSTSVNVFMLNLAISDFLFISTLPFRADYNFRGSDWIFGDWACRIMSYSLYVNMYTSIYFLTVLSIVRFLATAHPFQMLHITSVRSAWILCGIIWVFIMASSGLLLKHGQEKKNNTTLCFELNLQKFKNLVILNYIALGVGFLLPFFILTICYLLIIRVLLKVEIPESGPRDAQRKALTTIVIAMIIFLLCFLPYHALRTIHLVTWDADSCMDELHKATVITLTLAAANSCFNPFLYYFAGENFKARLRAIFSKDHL
Nature of the assay: Increase of intracellular Ca++ concentration, HEK293-EBNA cells transfected with pEF-BOS-rat LTC4 receptor. The format is cell-based. As to conditions: Logistic regression. As for the experimental part:
(§1) 2.5×10^4 cells per well of HEK293-EBNA cells were inoculated to 96 well Black/clear bottom plate, collagen type I coated (BECTON DICKINSON). After culturing for 24 hours, 40 ng per well of pEF-BOS-PSECO 146 or pEF-BOS (empty vector) were transfected into the cells using FuGENE6 (Boeringer Mannheim). 24 hours after gene transfection, the medium was discarded, 100 μl per well of DMEM containing 4 μM Fluo-3, AM (Molecular Probe), 0.004% pluronic acid, and 10% FBS was added and incubated for 1 hour at 37° C. Following incubation, cells were washed four times with Hanks BSS containing 20 mM HEPES (GIBCO), then 100 μl per well of Hanks BSS containing 20 mM HEPES was added. The time course of the changes of intracellular Ca^++ concentration was measured using FLIPR (Molecular Device).
This plasmid was designated as pEF-BOS-rat LTC4 receptor.
The changes of intracellular Ca^++ concentration were measured using HEK293-EBNA cells under the same condition as in Example 5.

The target of assay [6] is T3, pig LTC4 receptor (Sus scrofa, UniProt Q95N03).
T3 construct: expressed in transfected cells
T3 sequence (Q95N03 1-345): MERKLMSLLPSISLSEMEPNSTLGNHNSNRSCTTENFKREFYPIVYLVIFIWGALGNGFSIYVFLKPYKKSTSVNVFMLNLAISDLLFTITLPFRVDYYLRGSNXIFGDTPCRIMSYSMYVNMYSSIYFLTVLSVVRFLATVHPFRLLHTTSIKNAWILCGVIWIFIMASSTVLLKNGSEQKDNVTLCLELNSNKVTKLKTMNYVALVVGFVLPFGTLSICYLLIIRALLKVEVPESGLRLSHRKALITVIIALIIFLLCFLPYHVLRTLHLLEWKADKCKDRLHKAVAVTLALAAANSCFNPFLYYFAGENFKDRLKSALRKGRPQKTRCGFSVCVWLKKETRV
Nature of the assay: Increase of intracellular Ca++ concentration, HEK293-EBNA cells transfected with pEF-BOS-pig LTC4 receptor. The format is cell-based. The note with it: Logistic regression. As for the experimental part: as §1
Further, the changes of intracellular Ca^++ concentration were measured using HEK293-EBNA cells under the same condition as in Example 5.

Assay [7] concerns the target T3, pig LTC4 receptor. Nature of the assay: [3H]-LTC4 saturation binding, membrane fraction of COS-1 cells transfected with pEF-BOS-pig LTC4 receptor. As for the experimental part:
2×10^6 COS-1 cells were inoculated to a […] culture flask and cultured for 36 hours, and then, 50 μg of pEF-BOS-PSEC0146 or pEF-BOS (empty vector) was transfected using FuGENE6 (Boeringer Mannheim) Cells cultured for 36 hours following gene transfection were recovered and washed, then suspended in 20 mM Tris-HCl (pH 7.4), 5 mM EDTA and homogenized with a Polytron homogenizer. After ultracentrifugation, the homogenized cells were suspended in 50 mM HEPES (pH 7.4), 40 mM MgCl2, 1 mM EGTA as a membrane fraction. 0.5 to 14×10^−9 M of [^3H]-LTC4 (Daiichi Pure Chemicals) at final concentration was added to 5 μg of the membrane fraction, and incubated 1 hour at room temperature in 250 μl solution comprising 50 mM HEPES (pH 7.4), 40 mM MgCl2, 1 mM EGTA, 5 mM L-Serine, 10 mM Borate, 2 mM L-Cystein, and 2 mM L-Glycine. Thereafter, the membrane fraction was recovered on a glass filter using a cell harvester. Micro-scintillator was added to the glass filter and the total binding to the membrane fraction was measured by using a liquid scintillation counter. […]
First, to express the protein encoded by the cDNA, the cDNA was obtained by PCR using pig genomic DNA as the template. The nucleotide sequence of primers required for PCR was designed based on the nucleotide sequence information determined in Example 15. […]

In the case of `CCCn1c(-c2ccc3c(S(=O)(=O)Nc4onc(C)c4C)cccc3c2)nc2ccccc21` [Compound A, N-(3,4-dimethyl-5-isoxazolyl)-6-(1-propyl-1H-benzimidazol-2-yl) -1-naphthalenesulfonamide], the half-inhibitory concentration (IC50) in assay [1] turned out to be 1200 nM; in assay [3], 2300 nM. Further, the “inhibition of cell migration by LTC4” value in assay [2] is recorded as “inhibits dose-dependently”. For the same compound, the “inhibition of increase of intracellular Ca++ concentration elicited by LTD4” value in assay [3] (CHO stable cells, LTD4 stimulus) is “inhibited dose-dependently”. For the same compound, the “inhibition of increase of intracellular Ca++ concentration by LTC4” value in assay [4] (5 min pre-treatment) is recorded as “inhibit dose-dependently”.
Regarding `CCCCC/C=C\C\C=C/C=C/C=C/[C@@H](SC[C@H](NC(=O)CC[C@H](N)C(=O)O)C(=O)NCC(=O)O)[C@@H](O)CCCC(=O)O` [LTC4, leukotriene C4], the EC50 was determined as 19 nM in assay [5] and 5 nM in assay [6]. Also, in assay [4] (10^−6 to 10^−9 M LTC4), the “increase of intracellular Ca++ concentration” value is “induce increase of the intracellular Ca^++ concentration in a dose-dependent manner”. Also, the “maximum binding (Bmax)” value in assay [7] (Scatchard analysis, COS-1 membrane fraction) turned out to be 0.25 pmol/mg protein. Further, in assay [7] (read-out: dissociation constant of LTC4 binding (Kd), Scatchard analysis, COS-1 membrane fraction), the Kd stood at 2.89 nM.
With `CCCCC/C=C\C\C=C/C=C/C=C/[C@@H](SC[C@H](N)C(=O)NCC(=O)O)[C@@H](O)CCCC(=O)O` [LTD4, leukotriene D4], the EC50 in assay [5] was 7.7 nM; in assay [6], 3.3 nM.
